Measured values from article PMC2866172 (Journal of medicinal chemistry, 2010).
Where two headings read alike, the source gives them in different places.

Experiments:
[1] = Brain PET imaging in anesthetized baboons
[2] = PPB determination in pooled baboon plasma
[3] = patients with inflamed meninges, single 3 g oral dose; cited from earlier work
[4] = humans, cited from earlier work
[5] = about 3 h after i.v. administration of 108.7 mg INH, [14C]INH tracer; cited from earlier work
[6] = mice, [14C]INH, 10 mg/kg s.c., cited from earlier work
[7] = Torso PET imaging in anesthetized baboons; settings: for Calculated drug concentration in heart / Calculated drug concentration in kidney cortex / Calculated drug concentration in kidney medulla / Calculated drug concentration in liver / Calculated drug concentration in lung / Calculated drug concentration in plasma: calculated assuming 20 mg/kg dose, 17 kg baboon; for Concentration in heart / Concentration in kidney cortex / Concentration in kidney medulla / Concentration in liver / Concentration in lung / Concentration in plasma: baboon, i.v.
[8] = monkeys, 6 h after i.v. administration of [14C]RIF; cited from earlier work
[9] = patients, 150 mg oral dose, cited from earlier work
in vitro = settings: monkey, plasma

Compound: NC(=O)c1cnccn1 [PZA, pyrazinamide]
- Blood-brain barrier penetration ([1]; healthy baboons, i.v., TAC, AUC and image): excellent penetration
- PPB (value expressed as % of free fraction in plasma) ([2]; pooled baboon plasma, 10 min room temperature, % unbound): 91.32%
- CSF concentration of PZA [3]: 50 µg/mL

Compound: NNC(=O)c1ccncc1 [INH, isoniazid]
- INH CSF concentration ([4]; 8.5 mg/kg oral dose, 2 h): 1.9 µg/mL
- INH CSF concentration ([4]; 108.7 mg oral dose, 1 h): 0.31 µg/mL
- fraction unbound at 10 min ([2]; monkey, pooled plasma): 0.946
- INH concentration in surgically removed normal human lung [5]: 1.79 µg/g
- INH concentration in brain ([6]; 30 min): 4.4 µg/g
- INH concentration in brain ([6]; 60 min): 3.2 µg/g

Compound: N[11C](=O)c1cnccn1 [[^11C]PZA]
- Estimated concentration in whole brain, C30min ([1]; 30 min, estimated from baboon weight, 20 mg/kg dose, signal assumed intact drug): 21.05 µg/mL
- Estimated concentration in whole brain, C60min ([1]; 60 min, estimated from baboon weight, 20 mg/kg dose, signal assumed intact drug): 15.74 µg/mL
- Estimated concentration in whole brain, C90min ([1]; 90 min, estimated from baboon weight, 20 mg/kg dose, signal assumed intact drug): 13.70 µg/mL
- Concentration in whole brain, C30min ([1]; baboon, i.v., 30 min): 0.00619 %ID/cc
- Concentration in whole brain, C60min ([1]; baboon, i.v., 60 min): 0.00463 %ID/cc
- Concentration in whole brain, C90min ([1]; baboon, i.v., 90 min): 0.00403 %ID/cc
- Calculated drug concentration in heart ([7]; 15 min): (67.76) µg/ml
- Calculated drug concentration in kidney cortex ([7]; 15 min): (20.52) µg/ml
- Calculated drug concentration in kidney medulla ([7]; 15 min): (617.02) µg/ml
- Calculated drug concentration in liver ([7]; 15 min): (36.14) µg/ml
- Calculated drug concentration in lung ([7]; 15 min): (35.03) µg/ml
- Calculated drug concentration in plasma ([7]; 15 min): (22.03) µg/ml
- Calculated drug concentration in heart ([7]; 30 min): (61.50) µg/ml
- Calculated drug concentration in kidney cortex ([7]; 30 min): (16.59) µg/ml
- Calculated drug concentration in kidney medulla ([7]; 30 min): (474.39) µg/ml
- Calculated drug concentration in liver ([7]; 30 min): (26.96) µg/ml
- Calculated drug concentration in lung ([7]; 30 min): (26.48) µg/ml
- Calculated drug concentration in plasma ([7]; 30 min): (14.59) µg/ml
- Calculated drug concentration in heart ([7]; 60 min): (57.59) µg/ml
- Calculated drug concentration in kidney cortex ([7]; 60 min): (12.55) µg/ml
- Calculated drug concentration in kidney medulla ([7]; 60 min): (343.00) µg/ml
- Calculated drug concentration in liver ([7]; 60 min): (21.98) µg/ml
- Calculated drug concentration in lung ([7]; 60 min): (22.17) µg/ml
- Calculated drug concentration in plasma ([7]; 60 min): (11.25) µg/ml
- Calculated drug concentration in heart ([7]; 90 min): (59.49) µg/ml
- Calculated drug concentration in kidney cortex ([7]; 90 min): (9.93) µg/ml
- Calculated drug concentration in kidney medulla ([7]; 90 min): (229.44) µg/ml
- Calculated drug concentration in liver ([7]; 90 min): (19.19) µg/ml
- Calculated drug concentration in lung ([7]; 90 min): (18.58) µg/ml
- Calculated drug concentration in plasma ([7]; 90 min): (9.04) µg/ml
- Concentration in heart ([7]; 15 min after administration): 0.0199 %ID/cc
- Concentration in kidney cortex ([7]; 15 min after administration): 0.0060 %ID/cc
- Concentration in kidney medulla ([7]; 15 min after administration): 0.1815 %ID/cc
- Concentration in liver ([7]; 15 min after administration): 0.0106 %ID/cc
- Concentration in lung ([7]; 15 min after administration): 0.0103 %ID/cc
- Concentration in plasma ([7]; 15 min after administration): 0.00648 %ID/cc
- Concentration in heart ([7]; 30 min after administration): 0.0181 %ID/cc
- Concentration in kidney cortex ([7]; 30 min after administration): 0.0049 %ID/cc
- Concentration in kidney medulla ([7]; 30 min after administration): 0.1395 %ID/cc
- Concentration in liver ([7]; 30 min after administration): 0.0079 %ID/cc
- Concentration in lung ([7]; 30 min after administration): 0.0078 %ID/cc
- Concentration in plasma ([7]; 30 min after administration): 0.00429 %ID/cc
- Concentration in heart ([7]; 60 min after administration): 0.0169 %ID/cc
- Concentration in kidney cortex ([7]; 60 min after administration): 0.0037 %ID/cc
- Concentration in kidney medulla ([7]; 60 min after administration): 0.1009 %ID/cc
- Concentration in liver ([7]; 60 min after administration): 0.0065 %ID/cc
- Concentration in lung ([7]; 60 min after administration): 0.0065 %ID/cc
- Concentration in plasma ([7]; 60 min after administration): 0.00331 %ID/cc
- Concentration in heart ([7]; 90 min after administration): 0.0175 %ID/cc
- Concentration in kidney cortex ([7]; 90 min after administration): 0.0029 %ID/cc
- Concentration in kidney medulla ([7]; 90 min after administration): 0.0675 %ID/cc
- Concentration in liver ([7]; 90 min after administration): 0.0056 %ID/cc
- Concentration in lung ([7]; 90 min after administration): 0.0055 %ID/cc
- Concentration in plasma ([7]; 90 min after administration): 0.00266 %ID/cc

Compound: CO[C@H]1/C=C/O[C@@]2(C)Oc3c(C)c(O)c4c(O)c(c(/C=N/N5CCN(C)CC5)c(O)c4c3C2=O)NC(=O)/C(C)=C\C=C\[C@H](C)[C@H](O)[C@@H](C)[C@@H](O)[C@@H](C)[C@H](OC(C)=O)[C@@H]1C [RIF, rifampicin]
- RIF concentration in heart [8]: 10.11 µg/g
- RIF concentration in kidney [8]: 14.69 µg/g
- RIF concentration in liver [8]: 60.41 µg/g
- RIF concentration in lung [8]: 8.32 µg/g
- RIF bile concentration ([9]; 3–5 h): up to 538.5 µg/ml
- RIF concentration in the liver [9]: 22 to 35 µg/mL
- fraction unbound at 10 min (in vitro): 0.273
